This is an account of results in patent US20110262508A1, “ANTIMICROBIAL COMPOSITIONS, FORMULATIONS AND USES THEREOF” (priority 2007, published 2011).

The subject of assay [1] is A. baumannii ATCC 19606, Acinetobacter spp. ATCC 17903, Acinetobacter spp. ATCC 19004, E. coli BL21, S. aureus, S. typhimurium AroA, P. aeruginosa, P. …. Nature of the assay: Antibacterial spectrum over the serial dilution panel (Table 6). The assay is classed as cell-based. To be noted: summary of Table 6. As to the method:
Synthetic peptides were tested for their ability to inhibit bacterial growth in liquid culture. The peptides were added at a concentration of between about 5 μM and about 10 μM to individual wells of 96-deep-well dishes that contained liquid growth media freshly inoculated with one of the following bacteria: A. baumannii ATCC Accession No. 19606, Acinetobacter spp. ATCC 17903, Acinetobacter spp. ATCC 19004, Escherichia coli strain BL21, S. aureus, S. typhimurium strain AroA, P. aeruginosa or P. pneumotropica. After 5-6 hours of shaking at 37° C., growth was measured as absorbance at 595 nm. As a control, cultures were grown in the presence of 0.1% acetonitrile (i.e., the concentration present in 10 μM peptide).

In assay [2] the test system is A. baumannii. The assay is classed as cell-based. An excerpt:
Broth dilution methods are e.g., described by Lorian (2007) In: Antibiotics in Laboratory Medicine, Fifth Edition; and In: Clinical and Laboratory Standards Institute, CLSI (formerly NCCLS), In: Methods for Dilution Antimicrobial Susceptibility Tests for Bacteria that Grow Aerobically—Approved Standard—Seventh Edition, CLSI document M7-A7, Villanova, Pa. (NCCLS; January 2006; Vol. 26 No. 2); and In: Clinical and Laboratory Standards Institute, CLSI (formerly NCCLS), Performance Standards for Antimicrobial Susceptibility Testing, Seventeenth Informational Supplement, M100-S17, Vol 27 No. 1 January 2007, all of which are incorporated herein by reference.
The present inventors used such methods to quantitate activity in vitro of antimicrobial peptides of the invention against bacterial isolates, including laboratory strains and 50 clinical isolates of A. baumannii, and S. aureus ATCC Accession No. 2992. Briefly, small volumes of broth are dispensed in sterile, plastic microtiter trays, and 100 μl of serially-diluted antimicrobial peptide (0.1-64 μg) and 100 μl test organism (approximately 1×10^5 C.F.U.), are added. Following aerobic incubation overnight at 35±2° C. Control samples lacked peptide (Growth control), or lacked peptide and bacteria (Sterility control). The trays were examined visually and the minimal inhibitory concentration (MIC) of peptide required to inhibit bacterial growth were determined. The minimum bactericidal concentration (MBC) was estimated by sub-culturing the wells for which no bacterial growth was visible to the naked eye, to thereby determine a concentration of antimicrobial that reduces the original inoculum by at least about 99.9%.

Converted amounts (≈) assume the structure as drawn. Peptide text beside a SMILES is read from it.

In the case of `CC[C@H](C)[C@H](NC(=O)[C@H](CCSC)NC(=O)[C@H](Cc1c[nH]c2ccccc12)NC(=O)[C@@H](N)Cc1c[nH]cn1)C(=O)N1CCC[C@H]1C(=O)N[C@@H](CC(C)C)C(=O)N[C@@H](CCCNC(=N)N)C(=O)N[C@@H](CCCCN)C(=O)NCC(=O)N[C@@H](C)C(=O)N[C@@H](CCC(N)=O)C(=O)N[C@@H](Cc1ccc(O)cc1)C(=O)N[C@@H](CCC(=O)O)C(=O)N[C@@H](CCC(=O)O)C(=O)N[C@@H](CC(C)C)C(=O)N[C@@H](CCCNC(=N)N)C(=O)N[C@@H](CCCCN)C(=O)N[C@@H](CC(C)C)C(=O)N[C@@H](CO)C(=O)N[C@@H](CCCCN)C(=O)NCC(=O)N[C@@H](CC(=O)O)C(=O)N[C@@H](Cc1c[nH]cn1)C(=O)O` [Ac97] (H-HWMIPLRKGAQYEELRKLSKGDH-OH; N-terminus and C-terminus assumed), in assay [1], the “selectively inhibited growth of S. aureus” value is reported as “selectively inhibited growth”.

Consider `CC[C@H](C)[C@H](NC(=O)[C@H](CO)NC(=O)[C@H](CCCNC(=N)N)NC(=O)[C@@H]1CCCN1C(=O)[C@H](Cc1c[nH]c2ccccc12)NC(=O)[C@H](Cc1c[nH]cn1)NC(=O)[C@H](CC(N)=O)NC(=O)[C@H](Cc1c[nH]c2ccccc12)NC(=O)[C@H](CCCCN)NC(=O)[C@H](CCCCN)NC(=O)CNC(=O)[C@H](CCCCN)NC(=O)[C@H](CCC(N)=O)NC(=O)[C@H](CCCCN)NC(=O)[C@H](CCCCN)NC(=O)[C@H](CO)NC(=O)[C@H](CCCNC(=N)N)NC(=O)[C@H](CC(C)C)NC(=O)[C@H](CC(N)=O)NC(=O)[C@H](C)N)C(=O)N[C@@H](CCCCN)C(=O)N[C@@H](C)C(=O)O` [Ac101] (H-ANLRSKKQKGKKWNHWPRSIKA-OH; N-terminus and C-terminus assumed), for which the “selectively inhibited growth of Acinetobacter spp. ATCC 19004, and S. aureus” value in assay [1] is on record as “selectively inhibited growth”.

On to `CC[C@H](C)[C@H](NC(=O)[C@H](CCCNC(=N)N)NC(=O)[C@H](CCCNC(=N)N)NC(=O)[C@H](CS)NC(=O)CNC(=O)[C@H](CO)NC(=O)[C@@H](NC(=O)[C@@H](NC(=O)[C@H](CC(=O)O)NC(=O)[C@H](CCCCN)NC(=O)[C@@H](NC(=O)[C@H](CS)NC(=O)[C@@H](NC(=O)[C@@H](N)Cc1ccccc1)C(C)C)C(C)C)[C@@H](C)O)[C@@H](C)CC)C(=O)N[C@H](C(=O)NCC(=O)N[C@@H](Cc1ccccc1)C(=O)N[C@@H](CS)C(=O)N[C@H](C(=O)NCC(=O)N[C@@H](Cc1c[nH]c2ccccc12)C(=O)N[C@@H](CCCNC(=N)N)C(=O)N[C@@H](CC(C)C)C(=O)O)C(C)C)[C@@H](C)O` [Ac102] (H-FVCVKDTISGCRRITGFCVGWRL-OH; N-terminus and C-terminus assumed), for which the “selectively inhibited growth of Acinetobacter spp. ATCC 19004, and S. aureus” value in assay [1] was “selectively inhibited growth”.

On to `CC[C@H](C)[C@H](NC(=O)[C@H](CC(C)C)NC(=O)[C@H](CCCNC(=N)N)NC(=O)[C@@H](NC(=O)[C@@H](NC(=O)[C@H](Cc1ccc(O)cc1)NC(=O)[C@H](CCCCN)NC(=O)[C@@H](N)Cc1ccc(O)cc1)[C@@H](C)CC)[C@@H](C)CC)C(=O)N[C@@H](CCC(=O)O)C(=O)N[C@@H](CC(N)=O)C(=O)N[C@@H](Cc1c[nH]c2ccccc12)C(=O)NCC(=O)N[C@@H](CCC(=O)O)C(=O)N[C@@H](CO)C(=O)NCC(=O)N[C@@H](CO)C(=O)N[C@@H](CCCNC(=N)N)C(=O)N[C@@H](Cc1ccc(O)cc1)C(=O)N[C@@H](CO)C(=O)N[C@@H](CCCNC(=N)N)C(=O)N[C@H](C(=O)N[C@H](C(=O)N[C@@H](CCCNC(=N)N)C(=O)O)C(C)C)[C@@H](C)CC` [Ac19] (H-YKYIIRLIENWGESGSRYSRIVR-OH), for which the “selectively inhibited growth of A. baumannii ATCC Accession No. 19606, Acinetobacter spp. ATCC 17903, Acinetobacter spp. ATCC 19004, and S. aureus” value in assay [1] is listed as “selectively inhibited growth”.

With `CC(C)C[C@H](NC(=O)CNC(=O)[C@@H]1CCCN1C(=O)[C@H](Cc1c[nH]c2ccccc12)NC(=O)[C@H](CCCCN)NC(=O)[C@H](CCCCN)NC(=O)[C@H](CCCNC(=N)N)NC(=O)[C@H](C)NC(=O)[C@H](CCC(N)=O)NC(=O)[C@@H]1CCCN1)C(=O)NCC(=O)N[C@@H](CC(N)=O)C(=O)N[C@@H](CCC(=O)O)C(=O)N[C@H](C(=O)N[C@H](C(=O)N[C@@H](C)C(=O)N[C@@H](CCCNC(=N)N)C(=O)N[C@@H](CC(C)C)C(=O)N[C@@H](CC(C)C)C(=O)N[C@H](C(=O)N[C@H](C(=O)N[C@@H](CO)C(=O)N[C@@H](C)C(=O)O)C(C)C)[C@@H](C)O)[C@@H](C)O)C(C)C` [Ac100] (H-PQARKKWPGLGNEVTARLLTVSA-OH; N-terminus and C-terminus assumed), the “selectively inhibited growth of S. aureus” value in assay [1] is on record as “selectively inhibited growth”.

Turning to `CC[C@H](C)[C@H](NC(=O)[C@H](CC(C)C)NC(=O)[C@H](CCCCN)NC(=O)[C@@H](N)Cc1ccccc1)C(=O)N1CCC[C@H]1C(=O)N[C@H](C(=O)N[C@@H](CCCNC(=N)N)C(=O)N[C@@H](CCCNC(=N)N)C(=O)N[C@@H](CO)C(=O)N[C@@H](CO)C(=O)N[C@@H](CC(C)C)C(=O)N[C@H](C(=O)N[C@@H](CCCCN)C(=O)N[C@@H](CO)C(=O)N[C@@H](CC(C)C)C(=O)N1CCC[C@H]1C(=O)N[C@@H](C)C(=O)N[C@@H](Cc1ccccc1)C(=O)N[C@@H](CCCNC(=N)N)C(=O)N[C@@H](CCCNC(=N)N)C(=O)N[C@@H](CCCCN)C(=O)N[C@@H](C)C(=O)N1CCC[C@H]1C(=O)O)C(C)C)[C@@H](C)O` [Ac116] (H-FKLIPTRRSSLVKSLPAFRRKAP-OH; N-terminus and C-terminus assumed), the “selectively inhibited growth of Acinetobacter spp. ATCC 19004” value in assay [1] was “selectively inhibited growth”.

In general, MBC refers to the smallest concentration meeting the test's criterion for killing. Low readings indicate greater bactericidal potency, high ones weaker bactericidal potency. Usually MIC stands for the lowest concentration that inhibits growth of the organism. High values mean a need for much substance, low ones inhibition by little substance. Consider `CC(C)C[C@H](NC(=O)[C@H](Cc1ccccc1)NC(=O)[C@H](CCCNC(=N)N)NC(=O)[C@H](CCCNC(=N)N)NC(=O)[C@H](CCCNC(=N)N)NC(=O)[C@H](CO)NC(=O)[C@H](CS)NC(=O)[C@@H](N)Cc1c[nH]c2ccccc12)C(=O)N[C@@H](C)C(=O)N[C@@H](CCCNC(=N)N)C(=O)N[C@@H](CS)C(=O)N[C@@H](Cc1c[nH]c2ccccc12)C(=O)N[C@@H](CCCNC(=N)N)C(=O)O` [Ac496] (H-WCSRRRFLARCWR-OH; N-terminus and C-terminus assumed), for which, in assay [2], the minimum bactericidal concentration (MBC) amounted to 40 µM (≈ 71.8 µg/mL) and the “MIC” value came to 40 µM (≈ 71.8 µg/mL).

In the case of `CC(C)C[C@H](NC(=O)[C@H](CCCCN)NC(=O)[C@H](CCCNC(=N)N)NC(=O)[C@H](CC(C)C)NC(=O)[C@H](CCC(=O)O)NC(=O)[C@H](CCC(=O)O)NC(=O)[C@H](Cc1ccc(O)cc1)NC(=O)[C@H](CCC(N)=O)NC(=O)[C@H](C)NC(=O)CN)C(=O)N[C@@H](CO)C(=O)N[C@@H](CCCCN)C(=O)NCC(=O)N[C@@H](CC(=O)O)C(=O)N[C@@H](Cc1c[nH]cn1)C(=O)N[C@@H](CC(C)C)C(=O)N[C@H](C(=O)N[C@@H](CCCCN)C(=O)N[C@@H](CC(C)C)C(=O)N[C@@H](CCCCN)C(=O)N[C@H](C(=O)N[C@@H](CO)C(=O)N1CCC[C@H]1C(=O)O)[C@@H](C)O)C(C)C` [Ac98] (H-GAQYEELRKLSKGDHLVKLKTSP-OH; N-terminus and C-terminus assumed), the “selectively inhibited growth of S. aureus” value in assay [1] is listed as “selectively inhibited growth”.

Turning to `CC(C)C[C@H](NC(=O)CNC(=O)[C@H](CS)NC(=O)[C@H](CO)NC(=O)CNC(=O)[C@H](CCCNC(=N)N)NC(=O)[C@H](CS)NC(=O)[C@H](CCCCN)NC(=O)[C@H](CO)NC(=O)[C@H](CC(C)C)NC(=O)[C@@H](NC(=O)[C@H](CC(N)=O)NC(=O)[C@H](CS)NC(=O)[C@H](C)NC(=O)[C@H](CCCNC(=N)N)NC(=O)[C@H](Cc1c[nH]c2ccccc12)NC(=O)[C@H](CCCNC(=N)N)NC(=O)[C@H](Cc1c[nH]c2ccccc12)NC(=O)CNC(=O)[C@H](C)NC(=O)CN)[C@@H](C)O)C(=O)N[C@@H](CCCNC(=N)N)C(=O)N[C@H](C(=O)O)C(C)C` [Ac379] (H-GAGWRWRACNTLSKCRGSCGLRV-OH; N-terminus and C-terminus assumed), in assay [2], the “MBC” value came out at 39 µM (≈ 99 µg/mL) and the “MIC” value turned out to be 30 µM (≈ 76.1 µg/mL).

Take `CC(C)C[C@H](NC(=O)[C@H](CS)NC(=O)[C@@H](NC(=O)[C@@H](NC(=O)[C@H](Cc1ccccc1)NC(=O)[C@H](Cc1c[nH]c2ccccc12)NC(=O)[C@@H](NC(=O)[C@H](CC(C)C)NC(=O)[C@H](Cc1ccccc1)NC(=O)[C@H](CS)NC(=O)[C@@H](NC(=O)[C@H](CC(N)=O)NC(=O)[C@@H](N)Cc1c[nH]cn1)[C@@H](C)O)[C@@H](C)O)[C@@H](C)O)[C@@H](C)O)C(=O)O` [Ac472] (H-HNTCFLTWFTTCL-OH; N-terminus and C-terminus assumed): in assay [2], the minimal inhibitory concentration (MIC) turned out to be 15 µM (≈ 23.8 µg/mL), the “MIC (μM) for non-amidated Peptide” value came out at 15 µM and the “bactericidal or bacteriostatic against A. baumannii” value is reported as “bacteriostatic”. Besides, the “MBC (μM)” value in assay [2] (A. baumannii (Table 8), reduces original inoculum by at least about 99.9%) was “bacteriostat”.
